Experimental data taken from patent US20240409585A1, “MACROCYCLIC IMMUNOMODULATORS” (priority 2021, published 2024).
Numbered stars: 1 amine (or outer) side, 2 acyl side, 3 side chain; on linkers, the order of the positions; unused ones are H or OH. Bridge positions count the residues as written; N and C are the ends. Square brackets hold non-standard residues; d marks the D form. Peptide text beside a SMILES is read from it. * marks the point of attachment. X45 = CNS(=O)(=O)c1cccc(-c2ccc(C[C@H](N[*:1])C(=O)[*:2])cc2)c1; Bip(4'-NHAc) = CC(=O)Nc1ccc(-c2ccc(C[C@H](N)C(=O)O)cc2)cc1; X17 = Nc1ccc(-c2cccc(C[C@H](N[*:1])C(=O)[*:2])c2)cn1; Phe(3-CF3) = N[C@@H](Cc1cccc(C(F)(F)F)c1)C(=O)O; Ala(morpholin-4-yl) = N[C@@H](CN1CCOCC1)C(=O)O; Phe(4-CONH2) = NC(=O)c1ccc(C[C@H](N)C(=O)O)cc1; Phe(4-COOH) = N[C@@H](Cc1ccc(C(=O)O)cc1)C(=O)O; Bip = N[C@@H](Cc1ccc(-c2ccccc2)cc1)C(=O)O; Phe(3-Cl) = N[C@@H](Cc1cccc(Cl)c1)C(=O)O; Abu(3R-NH2) = C[C@@H](N)[C@H](N)C(=O)O; Phe(3-Me) = Cc1cccc(C[C@H](N)C(=O)O)c1; Val(3-OH) = CC(C)(O)[C@H](N)C(=O)O; X11 = CC(N)[C@H](N[*:1])C(=O)[*:2]; hPhe = N[C@@H](CCc1ccccc1)C(=O)O; Cha = N[C@@H](CC1CCCCC1)C(=O)O; Carboxymethyl = O=C(O)C*; NMeA = CN[C@@H](C)C(=O)O; Orn = NCCC[C@H](N)C(=O)O; Dab = NCC[C@H](N)C(=O)O

Each molecule was assayed against T1, Alexa fluor-647 labeled human PD-L1-Ig binding to Jurkat cell line over-expressing human PD-1 (Homo sapiens, UniProt Q15116) (assay: Jurkat-PD-1 Cell Binding High-Content Screening Assay (CBA): Method 3 (Alexa fluor-647 labeled PD-L1-Ig)). Settings: Jurkat-PD-1 cells, Alexa fluor-647 labeled PD-L1-Ig 177 nM; head μM; read-out: CBA Method 3 μM.
T1 construct: expressed in transfected cells; host or cells: Jurkat
Outline: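 Readout by high-content imaging of PFA-fixed, Hoechst-stained cells after 1 h with 177 nM (final) Alexa fluor-647 PD-L1-Ig. Compound was added first to hPD-1 Jurkat cells in RPMI plus 10% FCS for 2 h at 37 °C.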

T1 sequence (Q15116 25-288): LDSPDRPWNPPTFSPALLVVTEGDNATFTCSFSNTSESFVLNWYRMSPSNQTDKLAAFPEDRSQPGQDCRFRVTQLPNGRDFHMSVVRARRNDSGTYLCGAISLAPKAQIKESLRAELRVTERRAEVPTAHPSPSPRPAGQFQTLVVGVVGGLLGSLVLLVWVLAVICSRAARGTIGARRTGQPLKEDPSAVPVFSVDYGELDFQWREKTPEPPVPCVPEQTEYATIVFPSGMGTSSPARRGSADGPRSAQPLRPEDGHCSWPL

SMILES	IC50 [µM]
CC(C)C[C@H]1NC(=O)[C@H](C)N(C)C(=O)[C@H](Cc2ccc(C(N)=O)cc2)NC(=O)[C@H](Cc2ccc(-c3ccccc3)cc2)NC(=O)[C@H](Cc2ccc(OCC(=O)O)cc2)NC(=O)[C@H](Cc2cccc(C(F)(F)F)c2)NC(=O)[C@H](CC(=O)O)NC(=O)[C@H](Cc2ccc(C(=O)O)cc2)NC(=O)[C@H](C(C)N)NC(=O)CSC[C@@H](C(=O)N[C@@H](CCN)C(N)=O)NC(=O)[C@H](CO)NC(=O)[C@H](C(C)(C)O)NC(=O)[C@H](CC2CCCCC2)NC(=O)[C@H](CCN)NC1=O (stereo partly drawn) [Example 5147] ({CH2CO}-[X11][Phe(4-COOH)]D[Phe(3-CF3)]Y(Carboxymethyl)[Bip][Phe(4-CONH2)][NMeA][dL][Dab][Cha][Val(3-OH)]SC[Dab]-NH2; thioether N-14)	0.01
Cc1cccc(C[C@@H]2NC(=O)[C@H](CC(=O)O)NC(=O)[C@H](Cc3ccc(OCC(=O)O)cc3)NC(=O)[C@H](CC3CCCCC3)NC(=O)CSC[C@@H](C(=O)N[C@@H](CCN)C(N)=O)NC(=O)[C@H](CCCN)NC(=O)[C@H](C(C)C)NC(=O)[C@H](CCN)NC(=O)[C@H](CCN)NC(=O)[C@@H](CC(C)C)NC(=O)[C@H](C)N(C)C(=O)[C@H](CCC(N)=O)NC(=O)[C@H](Cc3ccc(-c4ccccc4)cc3)NC(=O)[C@H](Cc3ccc(C(=O)O)cc3)NC2=O)c1 [Example 5205] ({CH2CO}-[Cha]Y(Carboxymethyl)D[Phe(3-Me)][Phe(4-COOH)][Bip]Q[NMeA][dL][Dab][Dab]V[Orn]C[Dab]-NH2; thioether N-14)	0.16
CC(=O)Nc1ccc(-c2ccc(C[C@@H]3NC(=O)[C@H](Cc4cccc(C(F)(F)F)c4)NC(=O)[C@H](CC(=O)O)NC(=O)[C@H](Cc4ccc(C(=O)O)cc4)NC(=O)[C@H](CCN)NC(=O)CSC[C@@H](C(=O)N[C@@H](CCN)C(N)=O)NC(=O)[C@H](CC(N)=O)NC(=O)[C@H](C(C)C)NC(=O)[C@H](CC4CCCCC4)NC(=O)[C@H](CCN)NC(=O)[C@@H](CC(C)C)NC(=O)[C@H](C)N(C)C(=O)[C@H](Cc4ccc(C(N)=O)cc4)NC(=O)[C@H](Cc4ccc(-c5ccccc5)cc4)NC3=O)cc2)cc1 [Example 5098] ({CH2CO}-[Dab][Phe(4-COOH)]D[Phe(3-CF3)][Bip(4'-NHAc)][Bip][Phe(4-CONH2)][NMeA][dL][Dab][Cha]VNC[Dab]-NH2; thioether N-14)	0.01
Cc1cccc(C[C@@H]2NC(=O)[C@H](CC(=O)O)NC(=O)[C@H](Cc3ccc(OCC(=O)O)cc3)NC(=O)[C@H](C)NC(=O)CSC[C@@H](C(=O)N[C@@H](CCN)C(N)=O)NC(=O)[C@H](CCC(=O)O)NC(=O)[C@H](C(C)C)NC(=O)[C@H](CC3CCCCC3)NC(=O)[C@H](CCN)NC(=O)[C@@H](CC(C)C)NC(=O)[C@H](C)N(C)C(=O)[C@H](Cc3ccc(OCC(=O)O)cc3)NC(=O)[C@H](Cc3ccc(-c4ccccc4)cc3)NC(=O)[C@H](Cc3ccc(OCC(=O)O)cc3)NC2=O)c1 [Example 5139] ({CH2CO}-AY(Carboxymethyl)D[Phe(3-Me)]Y(Carboxymethyl)[Bip]Y(Carboxymethyl)[NMeA][dL][Dab][Cha]VEC[Dab]-NH2; thioether N-14)	0.03
Cc1cccc(C[C@@H]2NC(=O)[C@H](CC(=O)O)NC(=O)[C@H](Cc3ccc(OCC(=O)O)cc3)NC(=O)[C@H](CN3CCOCC3)NC(=O)CSC[C@@H](C(=O)N[C@@H](CCN)C(N)=O)NC(=O)[C@H](CCCN)NC(=O)[C@H](C(C)C)NC(=O)[C@H](CC3CCCCC3)NC(=O)[C@H](CCN)NC(=O)[C@@H](CC(C)C)NC(=O)[C@H](C)N(C)C(=O)[C@H](CCC(N)=O)NC(=O)[C@H](Cc3ccc(-c4ccccc4)cc3)NC(=O)[C@H](Cc3cccc(-c4ccc(N)nc4)c3)NC2=O)c1 [Example 5103] ({CH2CO}-[Ala(morpholin-4-yl)]Y(Carboxymethyl)D[Phe(3-Me)][X17][Bip]Q[NMeA][dL][Dab][Cha]V[Orn]C[Dab]-NH2; thioether N-14)	0.38
CC(C)C[C@H]1NC(=O)[C@H](C)N(C)C(=O)[C@H](CCC(N)=O)NC(=O)[C@H](Cc2ccc(-c3ccccc3)cc2)NC(=O)[C@H](CCc2ccccc2)NC(=O)[C@H](Cc2cccc(C(F)(F)F)c2)NC(=O)[C@H](CC(=O)O)NC(=O)[C@H](CCC(N)=O)NC(=O)[C@H](CC2CCCCC2)NC(=O)CSC[C@@H](C(=O)N[C@@H](CCN)C(N)=O)NC(=O)[C@H](CCCN)NC(=O)[C@H](C(C)C)NC(=O)[C@H](CC2CCCCC2)NC(=O)[C@H](CCN)NC1=O [Example 5246] ({CH2CO}-[Cha]QD[Phe(3-CF3)][hPhe][Bip]Q[NMeA][dL][Dab][Cha]V[Orn]C[Dab]-NH2; thioether N-14)	0.42
CC(C)C[C@H]1NC(=O)[C@H](C)N(C)C(=O)[C@H](CCC(N)=O)NC(=O)[C@H](Cc2ccc(-c3ccccc3)cc2)NC(=O)[C@H](CCc2ccccc2)NC(=O)[C@H](Cc2cccc(C(F)(F)F)c2)NC(=O)[C@H](CC(=O)O)NC(=O)[C@H](Cc2ccc(OCC(=O)O)cc2)NC(=O)[C@H](CC2CCCCC2)NC(=O)CSC[C@@H](C(=O)N[C@@H](CCN)C(N)=O)NC(=O)[C@H](CO)NC(=O)[C@H](C(C)(C)O)NC(=O)[C@H](CC2CCCCC2)NC(=O)[C@H](CCN)NC1=O [Example 5226] ({CH2CO}-[Cha]Y(Carboxymethyl)D[Phe(3-CF3)][hPhe][Bip]Q[NMeA][dL][Dab][Cha][Val(3-OH)]SC[Dab]-NH2; thioether N-14)	0.07

Same assay, conditions: Jurkat-PD-1 cells, Alexa fluor-647 labeled PD-L1-Ig 177 nM; nM; read-out: CBA Method 3

SMILES	IC50 [µM]
CNS(=O)(=O)c1cccc(-c2ccc(C[C@@H]3NC(=O)[C@H](Cc4cccc(C)c4)NC(=O)[C@H](CC(=O)O)NC(=O)[C@H](Cc4ccc(OCC(=O)O)cc4)NC(=O)[C@H](CN4CCOCC4)NC(=O)CSC[C@@H](C(=O)N[C@@H](CCN)C(N)=O)NC(=O)[C@H](CCCN)NC(=O)[C@H](C(C)C)NC(=O)[C@H](CC4CCCCC4)NC(=O)[C@H](CCN)NC(=O)[C@@H](CC(C)C)NC(=O)[C@H](C)N(C)C(=O)[C@H](CCC(N)=O)NC(=O)[C@H](Cc4ccc(-c5ccccc5)cc4)NC3=O)cc2)c1 [Example 5108] ({CH2CO}-[Ala(morpholin-4-yl)]Y(Carboxymethyl)D[Phe(3-Me)][X45][Bip]Q[NMeA][dL][Dab][Cha]V[Orn]C[Dab]-NH2; thioether N-14)	0.0073
Cc1cccc(C[C@@H]2NC(=O)[C@H](CC(=O)O)NC(=O)[C@H](Cc3ccc(OCC(=O)O)cc3)NC(=O)[C@H](CN3CCOCC3)NC(=O)CSC[C@@H](C(=O)N[C@@H](CCN)C(N)=O)NC(=O)[C@H](CCC(N)=O)NC(=O)[C@H](C(C)C)NC(=O)[C@H](CC3CCCCC3)NC(=O)[C@H](CCN)NC(=O)[C@@H](CC(C)C)NC(=O)[C@H](C)N(C)C(=O)[C@H](CCC(N)=O)NC(=O)[C@H](Cc3ccc(-c4ccccc4)cc3)NC(=O)[C@H](Cc3ccc(OCC(=O)O)cc3)NC2=O)c1 [Example 5224] ({CH2CO}-[Ala(morpholin-4-yl)]Y(Carboxymethyl)D[Phe(3-Me)]Y(Carboxymethyl)[Bip]Q[NMeA][dL][Dab][Cha]VQC[Dab]-NH2; thioether N-14)	0.0035
CC(C)C[C@H]1NC(=O)[C@H](C)N(C)C(=O)[C@H](CCC(N)=O)NC(=O)[C@H](Cc2ccc(-c3ccccc3)cc2)NC(=O)[C@H](CCc2ccccc2)NC(=O)[C@H](Cc2cccc(C(F)(F)F)c2)NC(=O)[C@H](CC(=O)O)NC(=O)[C@H](Cc2ccc(OCC(=O)O)cc2)NC(=O)[C@H]([C@@H](C)N)NC(=O)CSC[C@@H](C(=O)N[C@@H](CCN)C(N)=O)NC(=O)[C@H](CCC(=O)O)NC(=O)[C@H](C(C)C)NC(=O)[C@H](CC2CCCCC2)NC(=O)[C@H](CCN)NC1=O [Example 5215] ({CH2CO}-[Abu(3R-NH2)]Y(Carboxymethyl)D[Phe(3-CF3)][hPhe][Bip]Q[NMeA][dL][Dab][Cha]VEC[Dab]-NH2; thioether N-14)	0.001
Cc1cccc(C[C@@H]2NC(=O)[C@H](CC(=O)O)NC(=O)[C@H](Cc3ccc(OCC(=O)O)cc3)NC(=O)[C@H](Cc3cccc(Cl)c3)NC(=O)CSC[C@@H](C(=O)N[C@@H](CCN)C(N)=O)NC(=O)[C@H](CCCN)NC(=O)[C@H](C(C)C)NC(=O)[C@H](CC3CCCCC3)NC(=O)[C@H](CCN)NC(=O)[C@@H](CC(C)C)NC(=O)[C@H](C)N(C)C(=O)[C@H](CCC(N)=O)NC(=O)[C@H](Cc3ccc(-c4ccccc4)cc3)NC(=O)[C@H](Cc3ccc(C(=O)O)cc3)NC2=O)c1 [Example 5286] ({CH2CO}-[Phe(3-Cl)]Y(Carboxymethyl)D[Phe(3-Me)][Phe(4-COOH)][Bip]Q[NMeA][dL][Dab][Cha]V[Orn]C[Dab]-NH2; thioether N-14)	0.0018
CC(C)C[C@H]1NC(=O)[C@H](C)N(C)C(=O)[C@H](CCC(N)=O)NC(=O)[C@H](Cc2ccc(-c3ccccc3)cc2)NC(=O)[C@H](Cc2ccc(OCC(=O)O)cc2)NC(=O)[C@H](Cc2cccc(C(F)(F)F)c2)NC(=O)[C@H](CC(=O)O)NC(=O)[C@H](Cc2ccc(OCC(=O)O)cc2)NC(=O)[C@H]([C@@H](C)N)NC(=O)CSC[C@@H](C(=O)N[C@@H](CCN)C(N)=O)NC(=O)[C@H](CCCN)NC(=O)[C@H](C(C)C)NC(=O)[C@H](CC2CCCCC2)NC(=O)[C@H](CCN)NC1=O [Example 5220] ({CH2CO}-[Abu(3R-NH2)]Y(Carboxymethyl)D[Phe(3-CF3)]Y(Carboxymethyl)[Bip]Q[NMeA][dL][Dab][Cha]V[Orn]C[Dab]-NH2; thioether N-14)	0.0024
CC(C)C[C@H]1NC(=O)[C@H](C)N(C)C(=O)[C@H](CCC(N)=O)NC(=O)[C@H](Cc2ccc(-c3ccccc3)cc2)NC(=O)[C@H](CCc2ccccc2)NC(=O)[C@H](Cc2cccc(C(F)(F)F)c2)NC(=O)[C@H](CC(=O)O)NC(=O)[C@H](Cc2ccc(OCC(=O)O)cc2)NC(=O)[C@H](CN2CCOCC2)NC(=O)CSC[C@@H](C(=O)N[C@@H](CCN)C(N)=O)NC(=O)[C@H](CCCN)NC(=O)[C@H](C(C)C)NC(=O)[C@H](CC2CCCCC2)NC(=O)[C@H](CCN)NC1=O [Example 5216] ({CH2CO}-[Ala(morpholin-4-yl)]Y(Carboxymethyl)D[Phe(3-CF3)][hPhe][Bip]Q[NMeA][dL][Dab][Cha]V[Orn]C[Dab]-NH2; thioether N-14)	0.006
